IC50 data for 20 molecules are collected here from patent US20150175599A1, “FAAH Inhibitors” (Ironwood Pharmaceuticals, Inc., priority 2010, published 2015).

This test addresses T1, FAAH (Homo sapiens, UniProt O00519).
T1 construct: Reactions were initiated by adding 12.5 μg of brain microsome; tissue ABS, Inc; host or cells: human brain cerebral cortex, membrane/microsome fraction pooled from 3 donors
T1 sequence (O00519 1-579): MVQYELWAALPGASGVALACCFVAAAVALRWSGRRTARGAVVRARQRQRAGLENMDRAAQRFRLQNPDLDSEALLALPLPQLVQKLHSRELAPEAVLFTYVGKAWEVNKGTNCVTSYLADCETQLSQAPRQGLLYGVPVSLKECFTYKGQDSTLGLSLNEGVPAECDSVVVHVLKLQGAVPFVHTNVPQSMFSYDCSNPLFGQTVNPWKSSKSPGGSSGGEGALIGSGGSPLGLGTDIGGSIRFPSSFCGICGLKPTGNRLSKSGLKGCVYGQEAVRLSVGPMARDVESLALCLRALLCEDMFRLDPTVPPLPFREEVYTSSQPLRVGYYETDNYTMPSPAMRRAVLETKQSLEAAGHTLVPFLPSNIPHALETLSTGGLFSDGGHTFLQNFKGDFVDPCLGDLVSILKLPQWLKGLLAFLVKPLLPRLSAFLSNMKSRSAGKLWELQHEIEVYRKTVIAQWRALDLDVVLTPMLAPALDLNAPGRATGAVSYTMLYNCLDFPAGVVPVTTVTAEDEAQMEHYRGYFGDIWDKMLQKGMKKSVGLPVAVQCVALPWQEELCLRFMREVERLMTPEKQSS
The test can be described thus: FAAH inhibition, human brain membrane homogenate assay. Format: biochemical. To be noted: human brain homogenate; average activity; read-out: Human brain Extract FAAH IC50.
As for `COc1cc(NC(=O)C(=O)c2c(C)n(Cc3ccc(Cl)cc3)c3ccc(CO)cc23)ccn1` [Compound 8, 2-(1-(4-chlorobenzyl)-5-(hydroxymethyl)-2-methyl-1H-indol-3-yl)-N-(2-methoxypyridin-4-yl)-2-oxoacetamide], the IC50 was below 0.1 µM.
To `COc1cc(NC(=O)C(=O)c2c(C)n(Cc3ccc(Cl)cc3)c3ccc(COC(C)=O)cc23)ccn1` [Compound 10, (1-(4-chlorobenzyl)-3-(2-(2-methoxypyridin-4-ylamino)-2-oxoacetyl)-2-methyl-1H-indol-5-yl)methyl acetate] belongs below 0.1 µM; to `CCN(CC)c1ccc2c(c1)c(C(=O)C(=O)Nc1ccnc(OC)c1)c(C)n2Cc1ccc(Cl)cc1` [Compound 24, 2-(1-(4-chlorobenzyl)-5-(diethylamino)-2-methyl-1H-indol-3-yl)-N-(2-methoxypyridin-4-yl)-2-oxoacetamide], 1 to 10 µM; to `CNCc1ccc2c(c1)c(C(=O)C(=O)Nc1ccnc(OC)c1)c(C)n2Cc1ccc(Cl)cc1` [Compound 25, 2-(1-(4-chlorobenzyl)-2-methyl-5-((methylamino)methyl)-1H-indol-3-yl)-N-(2-methoxypyridin-4-yl)-2-oxoacetamide], 0.1 to 1 µM.
To `COc1cc(NC(=O)C(=O)c2c(C)n(Cc3ccc(Cl)cc3)c3ccc(CN(C)C)cc23)ccn1` [Compound 26, 2-(1-(4-chlorobenzyl)-5-((dimethylamino)methyl)-2-methyl-1H-indol-3-yl)-N-(2-methoxypyridin-4-yl)-2-oxoacetamide] belongs 0.1 to 1 µM; to `C=Cc1ccc2c(c1)c(C(=O)C(=O)Nc1ccnc(OC)c1)c(C)n2Cc1ccc(Cl)cc1` [Compound 27, 2-(1-(4-chlorobenzyl)-2-methyl-5-vinyl-1H-indol-3-yl)-N-(2-methoxypyridin-4-yl)-2-oxoacetamide], below 0.1 µM; to `COc1cnc2c(c1)c(C(=O)C(=O)Nc1ccnc(OC)c1)c(C)n2Cc1ncc(Cl)cc1Cl` [Compound 29, 2-(1-((3,5-dichloropyridin-2-yl)methyl)-5-methoxy-2-methyl-1H-pyrrolo[2,3-b]pyridin-3-yl)-N-(2-methoxypyridin-4-yl)-2-oxoacetamide], below 0.1 µM.
The figure for `COc1cc(NC(=O)C(=O)c2c(C)n(Cc3ccc(Cl)cc3)c3cnccc23)ccn1` [Compound 35, 2-(1-(4-chlorobenzyl)-2-methyl-1H-pyrrolo[2,3-c]pyridin-3-yl)-N-(2-methoxypyridin-4-yl)-2-oxoacetamide] is 0.1 to 1 µM.
In the case of `COc1ccc2c(c1)c(C(=O)C(=O)Nc1ccnc(OC)c1)c(C)n2Cc1ccc(S(C)(=O)=O)cc1` [Compound 39, 2-(5-methoxy-2-methyl-1-(4-(methylsulfonyl)benzyl)-1H-indol-3-yl)-N-(2-methoxypyridin-4-yl)-2-oxoacetamide], the IC50 lay in the range of 1 to 10 µM.
The figure for `COc1ccc2c(c1)c(C(=O)C(=O)Nc1ccnc(O)c1)c(C)n2Cc1ccc(Cl)cc1` [Compound 50, 2-(1-(4-chlorobenzyl)-5-methoxy-2-methyl-1H-indol-3-yl)-N-(2-hydroxypyridin-4-yl)-2-oxoacetamide] is 1 to 10 µM; for `COc1cc(NC(=O)C(=O)c2c(C)n(Cc3ccc(Cl)cc3)c3ccc(OC)c(OC)c23)ccn1` [Compound 56, 2-(1-(4-chlorobenzyl)-4,5-dimethoxy-2-methyl-1H-indol-3-yl)-N-(2-methoxypyridin-4-yl)-2-oxoacetamide] it is 0.1 to 1 µM; for `COc1cc(NC(=O)C(=O)c2c(C)n(Cc3ccc(Cl)cc3)c3ccc(OC)c(Cl)c23)ccn1` [Compound 58, 2-(4-chloro-1-(4-chlorobenzyl)-5-methoxy-2-methyl-1H-indol-3-yl)-N-(2-methoxypyridin-4-yl)-2-oxoacetamide] it is below 0.1 µM.
The figure for `COc1cc(NC(=O)C(=O)c2c(C)n(Cc3ccc(Cl)cn3)c3ccc([N+](=O)[O-])cc23)ccn1` [Compound 62, 2-(1-((5-chloropyridin-2-yl)methyl)-2-methyl-5-nitro-1H-indol-3-yl)-N-(2-methoxypyridin-4-yl)-2-oxoacetamide] is below 0.1 µM.
As to `COc1cc(NC(=O)C(=O)c2c(C)n(Cc3ccc(Cl)cn3)c3ccc(N)cc23)ccn1` [Compound 65, 2-(5-amino-1-((5-chloropyridin-2-yl)methyl)-2-methyl-1H-indol-3-yl)-N-(2-methoxypyridin-4-yl)-2-oxoacetamide], the IC50 lay within 0.1 to 1 µM.
The figure for `COc1cc(NC(=O)C(=O)c2c(C)n(Cc3ccc(Cl)cn3)c3ccc(N(C)C)cc23)ccn1` [Compound 66, 2-(1-((5-chloropyridin-2-yl)methyl)-5-(dimethylamino)-2-methyl-1H-indol-3-yl)-N-(2-methoxypyridin-4-yl)-2-oxoacetamide] is below 0.1 µM.
To `COc1cc(NC(=O)C(=O)c2c(C)n(Cc3ccc(Cl)cc3)c3ccc(N)c(Cl)c23)ccn1` [Compound 73, 2-(5-amino-4-chloro-1-(4-chlorobenzyl)-2-methyl-1H-indol-3-yl)-N-(2-methoxypyridin-4-yl)-2-oxoacetamide] belongs 0.1 to 1 µM.
To `COc1cc(NC(=O)C(=O)c2c(C)n(Cc3ccc(Cl)cc3)c3cc(C)c(OC)cc23)ccn1` [Compound 74, 2-(1-(4-chlorobenzyl)-5-methoxy-2,6-dimethyl-1H-indol-3-yl)-N-(2-methoxypyridin-4-yl)-2-oxoacetamide] belongs below 0.1 µM.
As to `COc1cc(NC(=O)C(=O)c2c(C)n(Cc3ccc(Cl)cn3)c3ncc(C)cc23)ccn1` [Compound 75, (1-((5-chloropyridin-2-yl)methyl)-2,5-dimethyl-1H-pyrrolo[2,3-b]pyridin-3-yl)-N-(2-methoxypyridin-4-yl)-2-oxoacetamide], the IC50 is below 0.1 µM.
The figure for `COc1cc(NC(=O)C(=O)c2c(C)n(Cc3ccc(Cl)cc3)c3ncc(C)cc23)ccn1` [Compound 76, 2-(1-(4-chlorobenzyl)-2,5-dimethyl-1H-pyrrolo[2,3-b]pyridin-3-yl)-N-(2-methoxypyridin-4-yl)-2-oxoacetamide] is below 0.1 µM; for `COc1cc(NC(=O)C(=O)c2c(C)n(Cc3ccc(Cl)cn3)c3cc(C)c(OC)cc23)ccn1` [Compound 95, 2-(1-((5-chloropyridin-2-yl)methyl)-5-methoxy-2,6-dimethyl-1H-indol-3-yl)-N-(2-methoxypyridin-4-yl)-2-oxoacetamide] it is below 0.1 µM.

One may read the IC50 as the concentration that inhibits the measured activity by half.
